Measurements from patent publication US7422883B2, “Map kinase integrin-binding domain” (Inter-K Pty Limited, priority 2000, dated 2008).
No end group written: not given here.

Experiments:
ERK2 = biological target: T1, ERK2 (Mus musculus, UniProt P63085); assay: ELISA of ERK2 binding to biotinylated integrin cytoplasmic domain peptides
T1 construct: GST (glutathione-S-transferase); made in house
Procedure: Peptide fragments corresponding to regions of the cytoplasmic tail domain of the β6 subunit were screened in an enzyme-linked immunosorbent assay (ELISA) for binding with ERK2. The 52 amino acid long β6 cytoplasmic tail is shown in FIG. 16 as are the amino acid sequences for the cytoplasmic domains of the β1 to β3 subunits. In particular, four synthetic peptides designated fragment 1 to fragment 4 were prepared and biotinylated at the N-terminal end of each, respectively (Auspep Pty Ltd, Melbourne Australia).
Overlapping biotinylated fragments 1 to 4 were coated onto streptavidin coated polystyrene plates (Pierce, Rockford Ill. USA, Cat No. 15125) and the ELISA performed substantially according to manufacturers instructions. Briefly, wells are washed with 3×200 μl of wash buffer (TBS, 0.1% BSA, 0.05% Tween 20 or SuperBlock™ blocking buffer in TBS, Pierce, Prod. No. 37535) prior to addition of biotinylated peptides (100 μl) and incubation for 1 hr at room temperature to allow for capture of the peptides on the plate. Following another washing step, peptides were overlayed with GST-ERK, ERK (or JNK-1) alone at a volume of 100 μl per well, and the plates incubated for a further 1 hr at room temperature before removal of any unbound ERK by further washing.
Binding of ERK to the peptides is detected using 100 μl anti-ERK1/2 mAb SC1647 (Santa Cruz) as the primary antibody at a dilution of 1:700 (isotype matched antibody IgG2b is used as a control). This is followed by another washing step and addition of 100 μl rabbit anti-mouse antibody (Biorad) conjugated to alkaline phosphatase at a concentration of 1:1000 for 30 minutes again at room temperature. A […] of detection reagent (alkaline phosphatase detection kit-Biorad) is then introduced into each well after a final washing step and allowed to react for 15-30 minutes at room temperature in the dark before absorbance is measured at 405 nm. All dilutions of peptides, MAP kinase and antibodies were performed using the wash buffer. GST-ERK is a fusion protein consisting of ERK coupled to glutathione-S-transferase and purified from host cells transfected with pGEX vector.
To further localise the binding domain on the cytoplasmic tail of the β6 subunit, progressively shorter peptides from the region of the β6 cytoplasmic tail corresponding to peptide fragment 2 were synthesised, biotinylated and the capacity to associate or otherwise bind to ERK2 assessed as described above. The binding of GST.ERK2 to a 15 mer test peptide (seq. 4) having the amino acid sequence RSKAKWQTGTNPLYR (SEQ ID NO: 7) and a 10 mer test peptide having the sequence RSKAKWQTGT (SEQ ID NO: 21) is shown in FIG. 20 compared to fragment 2 over a range of concentrations of the peptides. […] 4 peptide compared to fragment 2 was found. Binding of ERK2 to the seq. 3 peptide was substantially less than that observed for seq. 4.
Binding of ERK2 to the seq.4 peptide (RSKAKWQTGTNPLYR) (SEQ ID NO: 7) was compared with peptides corresponding to regions of the cytoplasmic domain of integrin subunits β1, β2, β3 and β5. The amino acid sequences for those peptides is shown below:
To evaluate this, cell lysates containing equal protein loads were prepared from SW480 wild-type cells and SW480 cells transfected with either vector alone (mock transfectants), wild type β6 or the β6 deletion mutant Δ746-764 (lacking the sequence EAERSKAKWQTGTNPLYRG (SEQ ID NO: 26), Cone et al, 1994). The lysates were immunoprecipitated with mAbs R6G9 (anti-β6), P1F6 (anti-β5) or murine IgG control antibody (mlgG). […] To determine whether β5 can bind ERK2 in vitro, a 15-mer peptide fragment derived from the β5 cytoplasmic domain corresponding to the ERK binding domain on β6 was tested for its ability to bind ERK2 in an ELISA.

SW480 cells = assay: In vitro wound assay (cell migration); type: cell-based, human; settings: SW480 lacking αvβ6, 1.25-10 μM, 48 hours, 1% foetal calf serum; FIG. 40
Procedure: The wound assay was performed by seeding 2×10^5 cells into 24 well (1.6 cm diameter) tissue culture plates in Dulbecco's modified Eagles medium (DMEM) supplemented by 10% foetal calf serum, HEPES, glutamine and antibiotics. The confluent cell monolayers were streaked with the tip of a plastic pipette in a cross-wire fashion, and loose non-adherent cells washed off gently with medium before replacing the culture medium with DMEM supplemented with 1% foetal calf serum. In addition, RSKAKWQTGTNPLYR (SEQ ID NO: 7) peptide ligated to penetratin (carrier peptide) by means of cysteine Cys (Npys) bonding was added to each well at a final concentration in the range of 1.25-10 μM. Cell migration across the wounded (streaked) area was photographed (Techpan, Kodachrome, ASA100) after a further 48 hours in culture. […] The conditions utilised in the assay were as follows: A: no peptide-penetratin complex added, B: 2.5 μM peptide-penetratin complex added, C: 5 μM peptide-penetratin complex added, D: 10 μM peptide-penetratin complex added.

SW480 β6 transfectants = assay: WST-1 growth inhibition, SW480 β6-expressing cells; type: cell-based, human; settings: 30 μm, 24 hours, serum-free, FIG. 29
Procedure: (§1) HT29 and SW480 β6-expressing colon cancer cell lines were seeded into wells of 96-well microtitre plates (Nunclon) in Dulbecco's Modified Eagle's Medium (DMEM) supplemented with 10% foetal bovine serum, glutamine, Hepes, and antibiotics. […] The cell proliferation reagent WST-1 is designed to be used for the non-radioactive, spectrophotometric quantification of cell growth and viability in proliferation and chemosensitivity assays. […]
(§2) Specifically, at the termination of experiments, 30 μl of WST-1 was added to 270 μl culture medium volume in each microtitre well and the colour change quantitated in an ELISA plate reader by measuring absorbance of the formazan product at […] (using a reference wavelength of more than 600 nm). The mean absorbance readings from triplicate wells (±standard error of the means) after subtraction of background control wells (culture medium without cells) was determined.
[…] Percentage inhibition was assessed by the WST-1 colorimetric dehydrogenase assay described in Example 6. […]

HT29 colon cancer cells = assay: WST-1 growth inhibition study, HT29; type: cell-based, human; settings: HT29, 10 μm, 24 hours, serum-free; FIG. 28
Procedure: as §1, §2

T1 sequence (P63085 whole entry, the tested form may be a part): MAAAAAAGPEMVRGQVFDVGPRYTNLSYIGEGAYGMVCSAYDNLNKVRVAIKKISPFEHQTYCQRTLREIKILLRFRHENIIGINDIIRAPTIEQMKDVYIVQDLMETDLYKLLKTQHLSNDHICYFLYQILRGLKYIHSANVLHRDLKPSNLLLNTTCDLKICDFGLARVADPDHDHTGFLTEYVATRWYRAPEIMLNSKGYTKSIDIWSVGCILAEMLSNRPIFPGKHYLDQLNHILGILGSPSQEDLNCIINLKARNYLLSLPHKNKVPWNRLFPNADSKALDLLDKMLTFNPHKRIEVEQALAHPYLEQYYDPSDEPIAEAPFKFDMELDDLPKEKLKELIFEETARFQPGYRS

**Q.** Which “binding of ERK2 to integrin subunit peptides” value (ERK2; corrected for non-specific binding, FIG. 34) does the source give for “RSKAKWQTGTNPLYR (also: biotinylated, site not given here) [seq. 4, 15 mer fragment of the β6 cytoplasmic domain]” here?
**A.** The value was “significant binding”.

**Q.** And the “binding of GST.ERK2 to peptide” value (ERK2; over a range of concentrations of the peptides, compared to fragment 2, FIG. 20)?
**A.** The value was “no reduction in binding”.

**Q.** And the “cell migration across wounded area (wound repair)” value (SW480 cells)?
**A.** Its value is “not stimulated”.

**Q.** What about the “inhibition of cell proliferation (WST-1)” value (SW480 β6 transfectants) of the same sequence?
**A.** Its value is “Only the carrier penetratin-peptide complex was effective in inhibiting cell proliferation in contrast to either peptide or penetratin alone”.

**Q.** What about the “inhibition of cell proliferation (WST-1)” value (HT29 colon cancer cells) of the same sequence?
**A.** Its value is “Only the carrier penetratin-peptide complex was effective in inhibiting cell proliferation in contrast to either peptide or penetratin alone”.
